Patent publication US20260199484A1, “PROTAC DEGRADERS OF MLLT1 AND/OR MLLT3” (DARK BLUE THERAPEUTICS LTD, priority 2024, published 2026)

Experiments:
[1] = test system: MV4-11 cells; test: MV4-11 cellular proliferative assay, Assay Format B (CTG 2.0, 168 h); type: cell-based; settings: Homo sapiens, Assay format B, 168 h, read-out: IC50 (MV4-11 cellular proliferative assay)
Description: MV4-11 cells at a confluency of ~50-80% was used for cell growth assay. 600 cells/well in a 384-well opaque cell culture plate (6007680; Perkin Elmer) were seeded in 40 μL of complete medium (IMDM+10% FBS+1× Penicillin-Streptomycin). Cells were incubated overnight at 37° C., 5% CO2. 10 mM DMSO stocks were prepared, cells were treated with 10 concentrations of test compounds starting from 1 uM or 100 nM, 3-fold dilution in 10 uL (5× concentration) of complete medium. Final DMSO concentration was 0.3%. Culture plates were centrifuged at 40×g, 30s. Cells were incubated with compounds for 168 h (7 days). After 7 days, 20 uL CTG 2.0 reagent (G9242; Promega) was added per well and luminescence reading was taken in Envision Xcite 2105 multimode plate reader. Data was analyzed in GraphPad Prism 10.0 and data was shown as % viability with respect to DMSO control and dose-response curves were generated using four parameter logistic regression. Assay quality was determined by z-factor calculation using positive and negative controls.

[2] = target: T1, MLLT1 (Homo sapiens, UniProt Q03111); test: MLLT1 degradation assay in MV4-11 cells (JESS, 24 h); type: cell-based; design: endogenous in cells; host or cells: MV4-11 (ATCC CRL-9591); settings: vs DMSO control
T1 sequence (Q03111 1-559): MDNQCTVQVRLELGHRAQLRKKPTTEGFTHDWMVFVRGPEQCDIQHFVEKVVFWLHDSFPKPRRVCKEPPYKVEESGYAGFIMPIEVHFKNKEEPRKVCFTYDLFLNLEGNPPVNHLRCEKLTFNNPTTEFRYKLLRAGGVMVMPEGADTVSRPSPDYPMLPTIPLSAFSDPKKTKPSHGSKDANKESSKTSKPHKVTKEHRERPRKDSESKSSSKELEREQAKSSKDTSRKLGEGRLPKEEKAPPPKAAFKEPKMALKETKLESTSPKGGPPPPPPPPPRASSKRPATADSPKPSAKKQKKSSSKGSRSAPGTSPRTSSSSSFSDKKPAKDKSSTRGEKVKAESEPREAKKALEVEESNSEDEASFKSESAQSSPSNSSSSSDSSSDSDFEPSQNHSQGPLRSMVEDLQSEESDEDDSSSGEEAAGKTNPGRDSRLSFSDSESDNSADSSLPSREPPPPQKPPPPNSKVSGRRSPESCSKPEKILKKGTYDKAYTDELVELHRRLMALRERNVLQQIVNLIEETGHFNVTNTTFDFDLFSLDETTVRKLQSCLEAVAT
How it was run: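 MV4-11 cells treated at 1000, 100 and 10 nM (0.1% DMSO) for 24 h at 37° C; lysates (4 ug protein) run on JESS capillary immunoassay with MLLT1 and GAPDH antibodies. Peak areas give % degradation versus DMSO, binned A (≥75%) to D (<25%).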

IC50 [1]	MLLT1% Degradation @ 0.01 μM [2]	MLLT1% Degradation @ 0.1 μM [2]	MLLT1% Degradation @ 1 μM [2]	Compound
< 100 nM				Cc1nn(CCCCCCCC#Cc2cccc3c2CN([C@@H]2CCC(=O)NC2=O)C3=O)c2cc(C(=O)Nc3cc4[nH]c([C@H]5CCCN5C)c(Cl)c4cn3)ccc12 (relative stereo) [Example 101, N-(3-chloro-2-((R)-1-methylpyrrolidin-2-yl)-1H-pyrrolo[3,2-c]pyridin-6-yl)-1-(9-(2-((rel-R)-2,6-dioxopiperidin-3-yl)-1-oxoisoindolin-4-yl)non-8-yn-1-yl)-3-methyl-1H-indazole-6-carboxamide]
< 100 nM	A (Category A: A≥75% degradation)	A (Category A: A≥75% degradation)	A (Category A: A≥75% degradation)	Cc1nn(CCCCCCCC#Cc2cccc3c2CN([C@H]2CCC(=O)NC2=O)C3=O)c2cc(C(=O)Nc3cc4[nH]c([C@H]5CCCN5C)cc4cn3)c(F)cc12 (relative stereo) [Example 102, 1-(9-(2-((rel-S)-2,6-dioxopiperidin-3-yl)-1-oxoisoindolin-4-yl)non-8-yn-1-yl)-5-fluoro-3-methyl-N-(2-((R)-1-methylpyrrolidin-2-yl)-1H-pyrrolo[3,2-c]pyridin-6-yl)-1H-indazole-6-carboxamide]
< 100 nM	A (Category A: A≥75% degradation)	A (Category A: A≥75% degradation)	A (Category A: A≥75% degradation)	Cc1nn(CCCCCCCC#Cc2cccc3c2CN([C@@H]2CCC(=O)NC2=O)C3=O)c2cc(C(=O)Nc3cc4[nH]c([C@H]5CCCN5C)cc4cn3)c(F)cc12 (relative stereo) [Example 103, 1-(9-(2-((rel-R)-2,6-dioxopiperidin-3-yl)-1-oxoisoindolin-4-yl)non-8-yn-1-yl)-5-fluoro-3-methyl-N-(2-((R)-1-methylpyrrolidin-2-yl)-1H-pyrrolo[3,2-c]pyridin-6-yl)-1H-indazole-6-carboxamide]
< 100 nM	A (Category A: A≥75% degradation)	A (Category A: A≥75% degradation)	A (Category A: A≥75% degradation)	Cc1nn(CC2CCN(c3cccc4c3CN(C3CCC(=O)NC3=O)C4=O)CC2)c2cc(C(=O)Nc3cc4[nH]c([C@H]5CCCN5C)cc4cn3)ccc12 (stereo in doubt) [Example 107, 1-((1-(2-((rel-S)-2,6-dioxopiperidin-3-yl)-1-oxoisoindolin-4-yl)piperidin-4-yl)methyl)-3-methyl-N-(2-((R)-1-methylpyrrolidin-2-yl)-1H-pyrrolo[3,2-c]pyridin-6-yl)-1H-indazole-6-carboxamide]

Continued, compound first:

Compound	IC50 [1]	MLLT1% Degradation @ 0.01 μM [2]	MLLT1% Degradation @ 0.1 μM [2]	MLLT1% Degradation @ 1 μM [2]
Cc1nn(CCCCCCCC=C(Cl)c2ccc3c(c2)n(C)c(=O)n3C2CCC(=O)NC2=O)c2cc(C(=O)Nc3cc4[nH]c([C@H]5CCCN5C)cc4cn3)ccc12 (mixture of isomers) [Example 40]	< 100 nM	A (Category A: A≥75% degradation)	A (Category A: A≥75% degradation)	A (Category A: A≥75% degradation)
Cc1nn(CCCCCCCC#Cc2cccc3c2CN([C@H]2CCC(=O)NC2=O)C3=O)c2cc(C(=O)Nc3cc4[nH]c([C@H]5CCCN5C)cc4cn3)ccc12 (relative stereo) [Example 98, 1-(9-(2-((rel-S)-2,6-dioxopiperidin-3-yl)-1-oxoisoindolin-4-yl)non-8-yn-1-yl)-3-methyl-N-(2-((R)-1-methylpyrrolidin-2-yl)-1H-pyrrolo[3,2-c]pyridin-6-yl)-1H-indazole-6-carboxamide]	< 100 nM	A (Category A: A≥75% degradation)	A (Category A: A≥75% degradation)	A (Category A: A≥75% degradation)
Cc1nn(CCCCCCCC#Cc2cccc3c2CN([C@@H]2CCC(=O)NC2=O)C3=O)c2cc(C(=O)Nc3cc4[nH]c([C@H]5CCCN5C)cc4cn3)ccc12 (relative stereo) [Example 99, 1-(9-(2-((rel-R)-2,6-dioxopiperidin-3-yl)-1-oxoisoindolin-4-yl)non-8-yn-1-yl)-3-methyl-N-(2-((R)-1-methylpyrrolidin-2-yl)-1H-pyrrolo[3,2-c]pyridin-6-yl)-1H-indazole-6-carboxamide]	< 100 nM	A (Category A: A≥75% degradation)	A (Category A: A≥75% degradation)	A (Category A: A≥75% degradation)
Cc1nn(CCCCCCCC#Cc2cccc3c2CN([C@H]2CCC(=O)NC2=O)C3=O)c2cc(C(=O)Nc3cc4[nH]c([C@H]5CCCN5C)c(Cl)c4cn3)ccc12 (relative stereo) [Example 100, N-(3-chloro-2-((R)-1-methylpyrrolidin-2-yl)-1H-pyrrolo[3,2-c]pyridin-6-yl)-1-(9-(2-((rel-S)-2,6-dioxopiperidin-3-yl)-1-oxoisoindolin-4-yl)non-8-yn-1-yl)-3-methyl-1H-indazole-6-carboxamide]	< 100 nM			
Cc1nn(CCCCCCCC#Cc2ccc3c(c2)n(C)c(=O)n3C2CCC(=O)NC2=O)c2cc(C(=O)Nc3cc4[nH]c([C@H]5CCCN5C)cc4cn3)ccc12 (stereo partly drawn) [Example 39, 1-(9-(1-(2,6-dioxopiperidin-3-yl)-3-methyl-2-oxo-2,3-dihydro-1H-benzo[d]imidazol-5-yl)non-8-yn-1-yl)-3-methyl-N-(2-((R)-1-methylpyrrolidin-2-yl)-1H-pyrrolo[3,2-c]pyridin-6-yl)-1H-indazole-6-carboxamide]	< 100 nM	A (Category A: A≥75% degradation)	A (Category A: A≥75% degradation)	A (Category A: A≥75% degradation)
Cc1nn(CCCCCCCC#Cc2ccc(F)c3c2CN(C2CCC(=O)NC2=O)C3=O)c2cc(C(=O)Nc3cc4[nH]c([C@H]5CCCN5C)cc4cn3)ccc12 (stereo partly drawn) [Example 52, 1-(9-(2-(2,6-dioxopiperidin-3-yl)-7-fluoro-1-oxoisoindolin-4-yl)non-8-yn-1-yl)-3-methyl-N-(2-((R)-1-methylpyrrolidin-2-yl)-1H-pyrrolo[3,2-c]pyridin-6-yl)-1H-indazole-6-carboxamide]	< 100 nM	A (Category A: A≥75% degradation)	A (Category A: A≥75% degradation)	A (Category A: A≥75% degradation)
Cc1nn(CCCCCCCC#Cc2cccc3c2CN(C2CCC(=O)NC2=O)C3=O)c2cc(C(=O)Nc3cc4[nH]c([C@H]5CCCN5C)c(Cl)c4cn3)ccc12 (stereo partly drawn) [Example 53, N-(3-chloro-2-((R)-1-methylpyrrolidin-2-yl)-1H-pyrrolo[3,2-c]pyridin-6-yl)-1-(9-(2-(2,6-dioxopiperidin-3-yl)-1-oxoisoindolin-4-yl)non-8-yn-1-yl)-3-methyl-1H-indazole-6-carboxamide]	< 100 nM	A (Category A: A≥75% degradation)	A (Category A: A≥75% degradation)	A (Category A: A≥75% degradation)
Cc1nn(CCCCCCCCC#Cc2cccc3c2CN(C2CCC(=O)NC2=O)C3=O)c2cc(C(=O)Nc3cc4[nH]c([C@H]5CCCN5C)cc4cn3)ccc12 (stereo partly drawn) [Example 54, 1-(10-(2-(2,6-dioxopiperidin-3-yl)-1-oxoisoindolin-4-yl)dec-9-yn-1-yl)-3-methyl-N-(2-((R)-1-methylpyrrolidin-2-yl)-1H-pyrrolo[3,2-c]pyridin-6-yl)-1H-indazole-6-carboxamide]	< 100 nM	A (Category A: A≥75% degradation)	A (Category A: A≥75% degradation)	A (Category A: A≥75% degradation)
CN1CCC[C@@H]1c1cc2cnc(NC(=O)c3ccc4cnn(CCCCCCCC#Cc5cccc6c5CN(C5CCC(=O)NC5=O)C6=O)c4c3)cc2[nH]1 (stereo partly drawn) [Example 55, 1-(9-(2-(2,6-dioxopiperidin-3-yl)-1-oxoisoindolin-4-yl)non-8-yn-1-yl)-N-(2-((R)-1-methylpyrrolidin-2-yl)-1H-pyrrol[3,2-c]pyridin-6-yl)-1H-indazole-6-carboxamide]	< 100 nM	B (Category B: 50%≤B<75% degradation)	A (Category A: A≥75% degradation)	A (Category A: A≥75% degradation)
